In article PMC6146777, “Biocompatible glyconanomaterials based on HPMA-copolymer for specific targeting of galectin-3” (Journal of Nanobiotechnology, 2018):

Target: T1, Recombinant human His6-tagged galectin-3 (Gal-3) (Homo sapiens, UniProt P17931)
T1 construct: gene LGALS3; His6-tagged Gal-3 (tag kept), expressed in E. coli Rosetta 2 (DE3) pLysS, 28,023 Da calculated, monomer in solution
Assay: competitive ELISA, Gal-3 binding to immobilized asialofetuin
Details: 6.5 µM Gal-3, EPBS buffer pH 7.5, 2 mM EDTA, 2 h; competitive with asialofetuin

T1 sequence (P17931 2-250): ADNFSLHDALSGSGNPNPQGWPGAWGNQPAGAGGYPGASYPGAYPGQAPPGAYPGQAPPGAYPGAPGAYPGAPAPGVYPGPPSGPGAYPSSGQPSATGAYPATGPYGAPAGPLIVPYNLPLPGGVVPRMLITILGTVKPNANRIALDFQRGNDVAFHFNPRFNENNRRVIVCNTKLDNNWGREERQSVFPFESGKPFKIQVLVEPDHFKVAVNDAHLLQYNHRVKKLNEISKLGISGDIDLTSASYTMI

Row | SMILES | IC50 [µM]
1 | CC(=O)N[C@H]1C(O)O[C@H](CO)[C@@H](O[C@@H]2O[C@H](CO)[C@H](O)[C@H](O)[C@H]2O)[C@@H]1O (some centres unmarked) [LacNAc] | 53 ± 16
2 | CC(=O)N[C@H]1[C@H](O[C@H]2[C@H](O)[C@@H](NC(C)=O)C(O)O[C@@H]2CO)O[C@H](CO)[C@H](O)[C@@H]1O (stereo partly drawn) [compound 5, 2-acetamido-2-deoxy-β-D-galactopyranosyl-(1 → 4)-2-acetamido-2-deoxy-D-glucopyranose] | 64 ± 20
